Measured values taken from ChEMBL document CHEMBL1141782, “Antineoplastic agents. 553. The Texas grasshopper Brachystola magna” (2005).
In brackets after ≈: the same amount, converted by molar mass.

Columns and labels:
Type in all cases: functional
DU-145 = assay: Cytotoxicity against human DU145 cells after 48 hrs by SRB assay; details: DU-145, 48 h, read-out: ED50 (the source's name)
BXPC-3 = assay: Cytotoxicity against human BxPC3 cells after 48 hrs by SRB assay; details: BXPC-3, 48 h, read-out: ED50 (the source's name)
P388 = assay: Cytotoxicity against mouse P388 cells; details: read-out: ED50 (the source's name)
KM-20L2 = assay: Cytotoxicity against human KM20L2 cells after 48 hrs by SRB assay; details: KM-20L2, 48 h, read-out: ED50 (the source's name)
NCI-H460 = assay: Cytotoxicity against human NCI-H460 cells after 48 hrs by SRB assay; details: NCI-H460, 48 h, read-out: ED50 (the source's name)
SF-268 = assay: Cytotoxicity against human SF268 cells after 48 hrs by SRB assay; details: SF-268, 48 h, read-out: ED50 (the source's name)
MCF7 = assay: Cytotoxicity against human MCF7 cells after 48 hrs by SRB assay; details: MCF7, 48 h, read-out: ED50 (the source's name)

Compound | EC50 (DU-145) | EC50 (BXPC-3) | EC50 (P388) | EC50 (KM-20L2) | EC50 (NCI-H460) | EC50 (SF-268) | EC50 (MCF7)
O=C1N[C@@H]2C(=C[C@H](O)[C@@H](O)[C@H]2O)c2cc3c(c(O)c21)OCO3 [NARCICLASINE] | 0.012 µg/mL (≈ 0.0391 µM) | 0.024 µg/mL (≈ 0.0781 µM) | 0.018 µg/mL (≈ 0.0586 µM) | 0.023 µg/mL (≈ 0.0749 µM) | 0.014 µg/mL (≈ 0.0456 µM) | 0.018 µg/mL (≈ 0.0586 µM) | 0.014 µg/mL (≈ 0.0456 µM)
O=C1N[C@H]2[C@H](O)[C@H](O)[C@@H](O)[C@H](O)[C@@H]2c2cc3c(c(O)c21)OCO3 [PANCRATISTATIN] | 0.037 µg/mL (≈ 0.114 µM) | 0.043 µg/mL (≈ 0.132 µM) | 0.048 µg/mL (≈ 0.148 µM) | 0.048 µg/mL (≈ 0.148 µM) | 0.029 µg/mL (≈ 0.0892 µM) | 0.032 µg/mL (≈ 0.0984 µM) | 0.035 µg/mL (≈ 0.108 µM)
[O-]c1cc2c3c(c1)c1cc4c(cc1c[n+]3CC2)OCO4 [UNGEREMINE] | 0.029 µg/mL (≈ 0.109 µM) | 0.87 µg/mL (≈ 3.28 µM) | 1.2 µg/mL (≈ 4.52 µM) | 0.5 µg/mL (≈ 1.88 µM) | 0.65 µg/mL (≈ 2.45 µM) | 0.057 µg/mL (≈ 0.215 µM) | 0.48 µg/mL (≈ 1.81 µM)
